Measured values reported in publication PMC12217463, “Functional and structural analyses of amino acid sequence variation in PDC β-lactamase reveal different mechanistic pathways toward cefiderocol resistance in Pseudomonas aeruginosa” (Antimicrobial Agents and Chemotherapy, 2025).
In brackets after ≈: the same amount, converted by molar mass.

Key:
PDC-1 (WT) = PDC-1 (WT) (Pseudomonas aeruginosa, UniProt P24735); assay: Steady-state kinetics of purified β-lactamase; details: for Ratio: kcat/Km relative to PDC-1 (reference = 1); for kcat: PDC-1 (WT), direct hydrolysis at substrate concentration at least three times the Km, 10 mM PBS, pH 7.4, room temperature
PDC L293P = PDC L293P (Pseudomonas aeruginosa, UniProt P24735, L320P); assay: Steady-state kinetics of purified β-lactamase; details: for Km / kcat: PDC L293P, 10 mM PBS, pH 7.4, room temperature; for Km: antibiotics: determined as Ki app with nitrocefin as reporter substrate; for kcat: direct hydrolysis at substrate concentration at least three times the Km; for Ratio for PDC L293P/PDC-1: ratio of kcat/Km (fold change in catalytic efficiency)
PDC E219K = PDC E219K (Pseudomonas aeruginosa, UniProt P24735, E247K); assay: Steady-state kinetics of purified β-lactamase; details: for Km / kcat: PDC E219K, 10 mM PBS, pH 7.4, room temperature; for Km: antibiotics: determined as Ki app with nitrocefin as reporter substrate; for kcat: direct hydrolysis at substrate concentration at least three times the Km; for Ratio for PDC E219K/PDC-1: ratio of kcat/Km (fold change in catalytic efficiency); for increase in kcat values: PDC E219K relative to PDC-1
[1] = test system: PAO1 + blaPDC F121L + G220S; assay: MIC, broth microdilution; format: cell-based; details: Pseudomonas aeruginosa
PAO1 + blaPDC L293P = assay: MIC, broth microdilution; format: cell-based; details: Pseudomonas aeruginosa
From the text: (§1) We took advantage of a previously constructed and characterized laboratory collection of recombinant P. aeruginosa PAO1 isolates expressing different blaPDC variants, but specifically enriched for this work with additional variants, following the previously described methodology ([17]). […] The final collection comprised 40 recombinant isolates (20 in PAO1 and 20 in PAO ΔpiuC) producing the wild-type PDC-1 variant from PAO1 and 19 derivatives carrying specific amino acid substitutions previously associated with the development of resistance to ceftazidime/avibactam, ceftolozane/tazobactam, or cefiderocol: T70I, F121L, P153L, G156D, A200T, G202S, ΔG202-E219, G214R, P215L, P215S, ΔP215-G222, D217N, E219K, E219G, E219D, S226ins, L293P, F121L + E219K, and F121L + G222S.
(§2) The MICs of ceftazidime, ceftazidime/avibactam, ceftolozane/tazobactam, cefepime, and cefiderocol were determined in triplicate, for all isolates, by reference broth microdilution assays. Avibactam and tazobactam were fixed at 4 mg/L. All assays were performed using cation-adjusted Mueller-Hinton broth (CAMHB), except for cefiderocol, which was determined in all cases using iron-depleted CAMHB, prepared according to CLSI M100 guidelines ([40]). EUCAST v.15.0 clinical breakpoints and guidelines (http://www.eucast.org/clinical_breakpoints/) were used for reference purposes. Reference strains Escherichia coli ATCC 25922, Klebsiella pneumoniae ATCC 700603, and P. aeruginosa ATCC 27853 were used as controls.

PAO1 + blaPDC P153L = assay: MIC, broth microdilution; format: cell-based; details: Pseudomonas aeruginosa
From the text: as §1, §2

[2] = test system: PAO1 + blaPDC F121L + E219K; assay: MIC, broth microdilution; format: cell-based; details: Pseudomonas aeruginosa
From the text: as §1, §2

PAO1 + blaPDC E219K = assay: MIC, broth microdilution; format: cell-based; details: Pseudomonas aeruginosa
From the text: as §1, §2

PAO1 + blaPDC ∆P215-G222 = assay: MIC, broth microdilution; format: cell-based; details: Pseudomonas aeruginosa, avibactam and tazobactam fixed at 4 mg/L, FDC in iron-depleted CAMHB
From the text: as §1, §2

PAO1 + blaPDC T70I = assay: MIC, broth microdilution; format: cell-based; details: Pseudomonas aeruginosa
From the text: as §1, §2

PAO1 + blaPDC F121L = assay: MIC, broth microdilution; format: cell-based; details: Pseudomonas aeruginosa
From the text: as §1, §2

PAO1 + blaPDC E219D = assay: MIC, broth microdilution; format: cell-based; details: Pseudomonas aeruginosa
From the text: as §1, §2

PAO1 + blaPDC E219G = assay: MIC, broth microdilution; format: cell-based; details: Pseudomonas aeruginosa
From the text: as §1, §2

PAO1 + blaPDC G214R = assay: MIC, broth microdilution; format: cell-based; details: Pseudomonas aeruginosa
From the text: as §1, §2

PAO1 + blaPDC S226ins = assay: MIC, broth microdilution; format: cell-based; details: Pseudomonas aeruginosa, avibactam and tazobactam fixed at 4 mg/L, FDC in iron-depleted CAMHB
From the text: as §1, §2

PAO1 + blaPDC ∆G202-E219 = assay: MIC, broth microdilution; format: cell-based; details: Pseudomonas aeruginosa, avibactam and tazobactam fixed at 4 mg/L, FDC in iron-depleted CAMHB
From the text: as §1, §2

PAO1 + blaPDC A200T = assay: MIC, broth microdilution; format: cell-based; details: Pseudomonas aeruginosa
From the text: as §1, §2

PAO1 + blaPDC G202S = assay: MIC, broth microdilution; format: cell-based; details: Pseudomonas aeruginosa
From the text: as §1, §2

PAO1 + blaPDC D217N = assay: MIC, broth microdilution; format: cell-based; details: Pseudomonas aeruginosa
From the text: as §1, §2

PAO1 + blaPDC-1 (WT) = assay: MIC, broth microdilution; format: cell-based; details: Pseudomonas aeruginosa, avibactam and tazobactam fixed at 4 mg/L, FDC in iron-depleted CAMHB
From the text: as §1, §2

PAO1 + blaPDC G156D = assay: MIC, broth microdilution; format: cell-based; details: Pseudomonas aeruginosa
From the text: as §1, §2

PAO1 + blaPDC P215S = assay: MIC, broth microdilution; format: cell-based; details: Pseudomonas aeruginosa
From the text: as §1, §2

PAO1 = assay: MIC, broth microdilution; format: cell-based; details: Pseudomonas aeruginosa; PAO1 wild type, no plasmid-borne PDC; avibactam and tazobactam fixed at 4 mg/L; FDC in iron-depleted CAMHB
From the text: as §1, §2

PAO1 + blaPDC P215L = assay: MIC, broth microdilution; format: cell-based; details: Pseudomonas aeruginosa
From the text: as §1, §2

[3] = test system: Cn1c(N)c(NC(=O)NCCN)c[n+]1CC1=C(C(=O)O)N2C(=O)[C@@H](NC(=O)/C(=N\OC(C)(C)C(=O)[O-])c3nsc(N)n3)[C@H]2SC1; assay: purified protein, by the assay type; details: other: PDC-1 (WT), antibiotics: determined as Ki app with nitrocefin as reporter substrate, 10 mM PBS, pH 7.4, room temperature
[4] = test system: O=C(Cc1cccs1)N[C@@H]1C(=O)N2C(C(=O)O)=C(/C=C/c3ccc([N+](=O)[O-])cc3[N+](=O)[O-])CS[C@H]12; assay: purified protein, by the assay type; details: other: PDC-1 (WT), antibiotics: determined as Ki app with nitrocefin as reporter substrate, 10 mM PBS, pH 7.4, room temperature
[5] = test system: CC(C)(O/N=C(\C(=O)N[C@@H]1C(=O)N2C(C(=O)[O-])=C(C[N+]3(CCNC(=O)c4ccc(O)c(O)c4Cl)CCCC3)CS[C@H]12)c1csc(N)n1)C(=O)O; assay: purified protein, by the assay type; details: other: PDC-1 (WT), antibiotics: determined as Ki app with nitrocefin as reporter substrate, 10 mM PBS, pH 7.4, room temperature
[6] = test system: CO/N=C(\C(=O)N[C@@H]1C(=O)N2C(C(=O)[O-])=C(C[N+]3(C)CCCC3)CS[C@H]12)c1csc(N)n1; assay: purified protein, by the assay type; details: other: PDC-1 (WT), antibiotics: determined as Ki app with nitrocefin as reporter substrate, 10 mM PBS, pH 7.4, room temperature
[7] = test system: CC(C)(O/N=C(\C(=O)N[C@@H]1C(=O)N2C(C(=O)[O-])=C(C[n+]3ccccc3)CS[C@H]12)c1csc(N)n1)C(=O)O; assay: purified protein, by the assay type; details: other: PDC-1 (WT), antibiotics: determined as Ki app with nitrocefin as reporter substrate, 10 mM PBS, pH 7.4, room temperature

Molecule	Ratio (PDC-1 (WT))	Km (PDC L293P)	kcat (PDC L293P)	Ratio for PDC L293P/PDC-1 (PDC L293P)	Km (PDC E219K)	kcat (PDC E219K)	Ratio for PDC E219K/PDC-1 (PDC E219K)	MIC [1]	kcat (PDC-1 (WT))	MIC (PAO1 + blaPDC L293P)	MIC (PAO1 + blaPDC P153L)	MIC [2]	MIC (PAO1 + blaPDC E219K)	MIC (PAO1 + blaPDC ∆P215-G222)	MIC (PAO1 + blaPDC T70I)	MIC (PAO1 + blaPDC F121L)	MIC (PAO1 + blaPDC E219D)	MIC (PAO1 + blaPDC E219G)	MIC (PAO1 + blaPDC G214R)	MIC (PAO1 + blaPDC S226ins)	other results
O=C(Cc1cccs1)N[C@@H]1C(=O)N2C(C(=O)O)=C(/C=C/c3ccc([N+](=O)[O-])cc3[N+](=O)[O-])CS[C@H]12 [Nitrocefin, nitrocefin]	1	6.71 ± 1.28 µM	18.77 ± 4.37 s⁻¹	1.80	24.1 ± 4.01 µM	4.41 ± 0.18 s⁻¹	0.12														
CC(C)(O/N=C(\C(=O)N[C@@H]1C(=O)N2C(C(=O)[O-])=C(C[n+]3ccccc3)CS[C@H]12)c1csc(N)n1)C(=O)O [CAZ, ceftazidime]	1	2.84 ± 0.31 µM	0.0110 ± 0.0003 s⁻¹	8.67	292 ± 27.5 µM			64 µg/mL (≈ 117 µM)	0.0082 s⁻¹	64 µg/mL (≈ 117 µM)	128 µg/mL (≈ 234 µM)	> 256 µg/mL	256 µg/mL (≈ 468 µM)	256 µg/mL	64 µg/mL (≈ 117 µM)	64 µg/mL (≈ 117 µM)	64 µg/mL (≈ 117 µM)	16 µg/mL (≈ 29.3 µM)	128 µg/mL (≈ 234 µM)	128 µg/mL	MIC (PAO1 + blaPDC ∆G202-E219): 64 µg/mL; MIC (PAO1 + blaPDC A200T): 64 µg/mL (≈ 117 µM); MIC (PAO1 + blaPDC G202S): 64 µg/mL (≈ 117 µM); MIC (PAO1 + blaPDC D217N): 64 µg/mL (≈ 117 µM); MIC (PAO1 + blaPDC-1 (WT)): 32 µg/mL; MIC (PAO1 + blaPDC G156D): 64 µg/mL (≈ 117 µM); MIC (PAO1 + blaPDC P215S): 64 µg/mL (≈ 117 µM); MIC (PAO1): ≤ 1 µg/mL; MIC (PAO1 + blaPDC P215L): 64 µg/mL (≈ 117 µM); increase in kcat values (PDC E219K): ≈ 267 fold; kcat (PDC E219K; listed as Ceftazidime): 2.19 ± 0.17 s⁻¹; kcat (PDC E219K; listed as ceftazidime): 2.19 s⁻¹; Ratio for PDC E219K/PDC-1 (PDC E219K; listed as Ceftazidime): 15.56; Ratio for PDC E219K/PDC-1 (PDC E219K; listed as ceftazidime): ≈ 16
PDC-1 (WT) (Pseudomonas aeruginosa PAO1)																					Km [3]: 554.08 ± 3.00 µM; kcat [3]: 0.0715 ± 0.0006 s⁻¹; kcat/Km [3]: 130 M⁻¹ s⁻¹; Km [4]: 13.98 ± 0.80 µM; kcat [4]: 21.9 ± 6.5 s⁻¹; kcat/Km [4]: 1.55e+06 ± 380000 M⁻¹ s⁻¹; Km [5]: 85.29 ± 9.48 µM; kcat [5]: 0.0036 ± 0.0007 s⁻¹; kcat/Km [5]: 40 M⁻¹ s⁻¹; Km [6]: 132.06 ± 23.69 µM; kcat [6]: 0.138 ± 0.009 s⁻¹; kcat/Km [6]: 1050 M⁻¹ s⁻¹; Km [7]: 18.08 ± 0.88 µM; kcat [7]: 0.0082 ± 0.0007 s⁻¹; kcat/Km [7]: 450 M⁻¹ s⁻¹
Cn1c(N)c(NC(=O)NCCN)c[n+]1CC1=C(C(=O)O)N2C(=O)[C@@H](NC(=O)/C(=N\OC(C)(C)C(=O)[O-])c3nsc(N)n3)[C@H]2SC1 [Ceftolozane, ceftolozane]	1	108 ± 28.8 µM	0.051 ± 0.007 s⁻¹	3.69	266 ± 43.5 µM	4.18 ± 0.19 s⁻¹	123.08		0.0715 s⁻¹												increase in kcat values (PDC E219K): ≈ 58 fold; kcat (PDC E219K; listed as ceftolozane): 4.18 s⁻¹; Ratio for PDC E219K/PDC-1 (PDC E219K; listed as ceftolozane): ≈ 123
CO/N=C(\C(=O)N[C@@H]1C(=O)N2C(C(=O)[O-])=C(C[N+]3(C)CCCC3)CS[C@H]12)c1csc(N)n1 [FEP, cefepime]	1	4.58 ± 0.42 µM	0.189 ± 0.007 s⁻¹	39.29	92.5 ± 26.3 µM	0.25 ± 0.06 s⁻¹	2.57	32 µg/mL (≈ 66.6 µM)		128 µg/mL (≈ 266 µM)	32 µg/mL (≈ 66.6 µM)	32 µg/mL (≈ 66.6 µM)	32 µg/mL (≈ 66.6 µM)	32 µg/mL	16 µg/mL (≈ 33.3 µM)	16 µg/mL (≈ 33.3 µM)	8 µg/mL (≈ 16.6 µM)	4 µg/mL (≈ 8.32 µM)	16 µg/mL (≈ 33.3 µM)	8 µg/mL	improvement in substrate binding affinity (Km decrease) (PDC L293P; PDC L293P relative to PDC-1): ≈ 29 fold; MIC (PAO1 + blaPDC ∆G202-E219): 8 µg/mL; MIC (PAO1 + blaPDC A200T): 16 µg/mL (≈ 33.3 µM); MIC (PAO1 + blaPDC G202S): 16 µg/mL (≈ 33.3 µM); MIC (PAO1 + blaPDC D217N): 16 µg/mL (≈ 33.3 µM); MIC (PAO1 + blaPDC-1 (WT)): 16 µg/mL; MIC (PAO1 + blaPDC G156D): 4 µg/mL (≈ 8.32 µM); MIC (PAO1 + blaPDC P215S): 8 µg/mL (≈ 16.6 µM); MIC (PAO1): 2 µg/mL; MIC (PAO1 + blaPDC P215L): 8 µg/mL (≈ 16.6 µM)
